“Also recorded” adds a separate entry of the source.
What was measured:
[1] = test system: endogenous H2B; assay: H2B-mNeon knock-in HDR quantification in K562 cells; type: cell-based, human; settings: H2B-mNeon RT
Procedure: After two days, cells were fixed in 4% PFA washed in PBS, then directly imaged, with cells showing nuclear localized fluorescence counted as successful HDR events.
K562 were grown in 24 well plates with RPMI-1640 supplemented with 5% FBS until roughly 70% confluent. At that time cells were either electroporated using the mNeon system (Invitrogen) using optimized settings for K562 cells, or lipofectamine 3000 again following manufactures instructions. Cells were then returned to 24 well plates with fresh media and grown for at least two days before being used in downstream analysis.
After 2 days, cells attached to coverslips coated with 0.01% poly-1-lysine, and were fixed in 4% PFA (Thermofisher) for 15 minutes at RT. After fixation, cells were washed 3× in PBS, mounted in 50% glycerol and imaged on a Nikon Eclipse E600 with standard FITC filters. For quantification, random patches of cells (usually between 8-15 cells per image) were identified via Brightfield, then fluoresce images were taken with constant illumination and exposure time (100%, and 110 ms respectively).

[2] = test system: intergenic region on Chromosome 6 (Int-G2, Int-G3); assay: PuroRT HDR quantification in K562 cells (puromycin survival); type: cell-based, human
From the text: The target integration site is approximately ˜1 kb to the 3′ end of the human H2B gene on Chromosome 6, an intergenic region which has no predicted genes or long non-coding RNA.
Next, to assay HDR rates, K562 cells were again used instead of A549 cells, as the lack of a functional p53 gene should help to deconvolute HDR rates from cellular toxicity effects. […] After two days, DNA was extracted from ˜ 1/10 of surviving cells and used for analysis of Puro RT genomic integration. The next day, 0.5 mg/mL puromycin was added, and after three days cellular survival was quantified via resazurin assay as described previously.
After two days, 1/10 of cells were taken for DNA extraction, while the rest were treated with 0.5 μg/mL puromycin. Cells were grown for a further 3 days then viability quantified via Resazurin assay.

[3] = test system: AAVS1; assay: RLucRT luminescence HDR assay in H1299 cells; type: cell-based, human; settings: for luminescence relative to Cas9: RLucRT (2.0 kb)
Procedure: FIG. 4B illustrates experimental procedures for RLucRT experiments. Diagram showing experimental procedure for the dsDNA RLucRT HDR assay in H1299 cells. […] After two days, cellular viability is quantified via Resazurin assay, then cells are washed with PBS then lysed. Lysate is then incubated with Coelenterazine, and luminescence immediately quantified via plate reader.
For these experiments, the well characterized safe harbor site AAVS1 was used combined with previously established and functional guide RNAs AAVS1 T1 and T2, which will be referred to as G1 and G2 respectively hereafter. […] As with the puromycin resistance cassette, PCR amplified dsDNA was used as opposed to plasmids to avoid confounding results when quantifying HDR rates, and to avoid extra integration of plasmid specific sequences in the genome.
Next the viability of transfected cells was quantified via resazurin after two days, then cells were washed with PBS, then lysed and luminescence quantified via plate reader (FIG. 4B). […] Next Luminescence was quantified via the Renilla-Glo Luciferase Assay System (Promega) using a 96 well plate reader with luminescence capabilities (Tecan). After data collection, raw luminescence was background subtracted from non-transfected control cells, corrected for cellular viability, and plotted in FIG. 4D.
After two days, cellular viability was quantified via Resazurin, then washed with PBS and lysed with 25 μL of cell lysis buffer, and luciferase activity was quantified via Renilla Luciferase Assay (Promega) and using a Tecan Infinite Mplex plate reader.

[4] = test system: AAVS1; assay: RLucRT HDR assay in A549 cells; type: cell-based, human; settings: G1
[5] = test system: HBB amplicon; assay: In-vitro exonuclease assay with purified proteins; type: biochemical, human; settings: 30 nM protein, 3 nM HBB amplicon, 37° C., 60 minutes
Procedure: Reactions were then electrophoresed and visualized on an agarose gel. FIG. 5C illustrates quantification of exonuclease activity. Quantification of exonuclease activity assayed in FIG. 5B. 3 replicates were performed for each reaction and were quantified via FIJI (ImageJ) and then normalized to control amplicon levels.
Reactions were then electrophoresed and visualized on an agarose gel.
DNA was isolated from wildtype K562 cells, and amplified using standard Taq DNA polymerase and HBB-out-F (5′-[…]-3′ (SEQ ID NO: 125)) and HBB-out-R (5′-[…]-3′ (SEQ ID NO: 126)), Tm=56 for 35 cycles, and purified using the Qiagen PCR cleanup kit. […] The samples were then electrophoresed on a standard 1% TAE agarose gel stained with gel green.

[6] = test system: Beta-Catenin1; assay: Beta-Catenin1:mCherry HDR in H1299 cells; type: cell-based, human
Procedure: (§1) After three days, media was replaced with HBSS (to reduce background for imaging) imaged using an EVOS M5000 imaging system. Imaging was performed by randomly finding and focusing on at least ten different sections per well using a 20× magnification lens, after which both brightfield and RFP images were acquired. Imaged were quantified by hand, using control images as the basis for RFP/mCherry background fluorescence.

[7] = test system: Beta-Catenin1; assay: Beta-Catenin1:mCherry knock-in in HEK293 cells; type: cell-based, human
[8] = test system: Cadherin1; assay: Cadherin1:mCherry HDR in H1299 cells; type: cell-based, human
Procedure: as §1, with “10×” for “20×”

[9] = test system: CDH1; assay: CDH1:mCherry knock-in in HEK293 cells; type: cell-based, human; settings: Ecad-G1
Procedure: After three days, media was replaced with HBSS (to reduce background for imaging) imaged using an Cytation5 imaging system. Imaging was performed by taking a 6×6 stitched image in the middle of the well using an 10× magnification lens, where both brightfield and RFP images were acquired. HDR rates were quantified via ImageJ, two independent replicates were performed per treatment. FIG. 13A illustrates a Cadherin1:mCherry RT design showing the human genomic region surrounding the last exon (exon 16) of Cadherin1. Two different gRNAs are denoted by black arrows (G1, G2), with arrow direction indicating the targeted strand. A repair template was constructed containing about 750 bp long 5′ and 3′ Homology arms, exon 16 of Cadherin1, silent mutations introduced to prevent gRNA binding to the RT, and a direct fusion of the fluorescent protein mCherry. FIG. 13B illustrates quantification of Cadherin1:mCherry HDR rate in H1299 cells showing the average mCherry+ cells per image section (>10 for all conditions) imaged at day 3 post transfection.

[10] = test system: Safe Harbor Site (SHS)-231; assay: SHS-231 mNeon knock-in in H1299 cells; type: cell-based, human
From the text: After reaching confluency, cells were tryspinized and seeded in 6 well plates, which were then imaged at 10× magnification using a Leica THUNDER Epifluorescent microscope. After imaging, thresholds and ROIs for mNeon+ cells were generated using FIJI (ImageJ).
After 7 days, cells were tryspinized and transferred to 6 well plates, and grown for an additional 7 days. On Day 14, media was replaced with HBSS (to reduce background for imaging) and imaged using a Cytation5 imaging system. Imaging was performed by taking a 6×6 stitched image in the middle of the well using an 10× magnification lens, where both brightfield and RFP images were acquired. HDR rates were quantified via ImageJ, two independent replicates were performed per treatment.

[11] = comparison with Dna2 fusions, day 3
[12] = SHS-231 G1, 14 Days, stitched images

Substance: Cas9-HR 8: hExo1(1-352)-Cas9 fusion of FIG. 1A; E. coli codon optimized vectors SEQ ID NO: 68 and 69
- PCR of 5′ and 3′ knock-in junctions ([1]; genome specific plus RT specific primers): Successful amplification
- HDR rate (cells with nuclear localized mNeon fluorescence) ([1]; hH2B-G4, two days, compared to Cas9-HR 4 or Cas9): significant increase in HDR rate
- PCR of genomic integration of Puro RT at 5′ and 3′ ends [2]: successful integration of the repair template
- nested junction PCR of RLucRT integration (5′ and 3′) ([3]; AAVS1-G1): Strong specific amplification
- luminescence relative to Cas9 ([3]; AAVS1 G1): ~2.5 fold
- luminescence relative to Cas9 ([3]; AAVS1 G2): ~2 fold
- luminescence, AAVS1-G1 compared with AAVS1-G2 ([3]; background subtracted): significantly higher luminescence
- increase in HDR rates compared to Cas9 (Cas9 normalized luminescence) ([3]; both G1 and G2): 2-3 ×
- HDR rates compared to Cas9 (normalized luminescence) [4]: ~2.5 ×
- exonuclease activity (reduction of full length HBB amplicon) [5]: significant reduction in the full length HBB amplicon; also recorded: significant exonuclease activity
- fold change in mCherry+ cells relative to Cas9 ([6]; G2, day 3): ~2.5 fold
- fold change in mCherry+ cells relative to Cas9 ([6]; G3, day 3): ~2.5 fold
- fold increase in mCherry+ cells relative to Cas9 ([6]; all guide polynucleotides (G1, G2, G3), day 3): > 2 fold
- mCherry+ cells compared to Cas9 ([6]; all three gRNAs, day 3): significant increases in mCherry+ cells
- positive cell count compared to Beta-Catenin1:mCherry alone ([6]; average mCherry+ cells per image section, day 3): significant increases in positive cell count
- HDR rates compared to Cas9 (normalized knock-in rates) ([7]; B-Cat-G3): ~2.5 ×
- absolute mCherry+ cells relative to Cas9-NT or repair template alone ([7]; Beta-Catenin-G1): significant increases in mCherry+ cells
- numbers of mCherry+ cells compared to repair template ([7]; Beta-Catenin-G1): significantly increased numbers of mCherry+ cells
- mCherry+ cells, whole well imaging ([8]; H1299 cells, 12 well plate, Ecad-G1, 4 Days after transfection): significant amounts of mCherry+ cells; also recorded: significantly higher amounts of mCherry+ cells
- fold change in mCherry+ cells relative to Cas9 ([8]; H1299 cells, G1, day 3): ~2.3 fold
- fold increase in mCherry+ cells relative to Cas9 ([8]; H1299 cells, all guide polynucleotides, day 3): > 1.5 fold
- mCherry+ cells compared to Cas9 ([8]; H1299 cells, all three gRNAs (so in the source), day 3): significant increases in mCherry+ cells
- positive cell count compared to Cadherin1:mCherry alone ([8]; H1299 cells, average mCherry+ cells per image section, day 3): significant increases in positive cell count
- normalized Cadherin1:mCherry HDR rate (fold change compared to Cas9) ([8]; comparison with Dna2 fusions): significantly higher HDR rate
- mCherry+ cell count compared to Cadherin1:mCherry RT alone [8, 11]: significant increases in mCherry+ cell count
- mCherry+ cells compared to Cas9 [8, 11]: significant increases in mCherry+ cells
- HDR rates compared to Cas9 (normalized knock-in rates) [9]: ~3.5 ×
- absolute mCherry+ cells relative to Cas9-NT or repair template alone [9]: significant increases in mCherry+ cells
- numbers of mCherry+ cells compared to repair template [9]: significantly increased numbers of mCherry+ cells
- cellular fluorescence (expression) levels of mNeon+ cells compared to Cas9 ([10]; 14 days): much more uniform and lower expression levels
- absolute numbers of mNeon+ cells ([10]; SHS-231-G1, SHS-231-mNeon RT, 14 days post-transfection): 3652
- mNeon cell counts normalized to Cas9 ([10]; SHS-231-G2, two independent experiments): increase of HDR rates
- GFP+ cells compared to Cas9 [10, 12]: significantly more GFP+ cells
- total cells compared to Cas9 [10, 12]: significantly more total cells

— patent US20230416785A1, “NUCLEASE AND APPLICATION THEREOF” (CRISP-HR Therapeutics, Inc., priority 2020, published 2023)
